Results: patent US20080260774A1, “Alpha-galactosyl ceramide analogs and their use as immunotherapies” (priority 2007, published 2008)

Key:
[1] = test system: Sphingomonas capsulata; assay: Antibacterial efficacy in Sphingomonas capsulata infected mice; type: in vivo, mouse; details: 50 μg/kg
Text: Sphingomonas capsulata is a common environmental bacterial strain that is found in many places such as the air and water. It can be easily identified on nutrient agar plates because of its yellow colony color. […] Since the antibacterial activities of glycolipid antigens are mediated through the activation of NKT cells by glycolipid bound-CD1-d molecules, evaluation of the antibacterial efficacies using the disease model of Sphingomonas capsulata infection will focus on the impact of the NKT mediated pathway that is activated by glycolipid bindings. Six to eight week old female C57BL/6 mice were injected IP with Sphingomonas capsulate cells. […] Twenty-four hours after bacterial infection, livers were removed from mice and homogenized. Colony formation units (CFU) of Sphingomonas capsulate in liver homogenates were determined by plating diluted samples on nutrient plates. Colonies were counted after incubation for 48 hours at 37° C. […] To confirm the antibacterial efficacies of these α-GalCer analogs, another study was conducted to repeat the study by treating infected mice with 50 μg/kg in the same disease model. […] Six to eight week old female C57BL/6 mice were injected IP with 5×10^8 Sphingomonas capsulate cells. Mice were grouped into treatment and control groups with 4-6 mice per group. Four hours after the infection, mice in the treatment group were injected IP with testing α-GalCer analogs at 50 or 100 μg/kg, and the control group mice were injected with same volumes of PBS. Twenty-four hours after bacterial infection, mice from all groups were sacrificed. Livers were removed from mice and homogenized in 0.9% NaCl, 0.02% Tween 80 using tissue homogenizers. Colony formation units (CFU) of Sphingomonas capsulate in liver homogenates were determined by plating diluted samples on nutrient plates. Colonies were counted after incubation for 48 hours at 37° C.

[2] = test system: C57BL/6 mice; assay: Expansion of NKT subsets in spleens of C57BL/6 mice; type: in vivo; details: C57BL/6 Wt, 72 h post IV injection, 0.1 μg per mouse
[3] = test system: TC1 tumor; assay: Tumor infiltrating lymphocytes in lung cancer (TC1) by flow cytometry; type: in vivo; details: day 21; 0.1 μg/mouse, once/week; normalized to DMSO
[4] = test system: B16 melanoma; assay: Tumor infiltrating lymphocytes in B16 melanoma by flow cytometry; type: in vivo; details: day 21; 0.1 μg/mouse, once/week; normalized to DMSO
[5] = test system: naïve CD161^+/CD3^+ NKTs; assay: Human NKT TCR activation (phosphoproteins), glycolipid presented by HeLa, HeLa-CD1d or iDCs, 10 μg/ml; type: cell-based; details: for intracellular phospho-CD3ε / phospho-CREB / phospho-ERK1/2: 10 μg/ml
[6] = test system: syngeneic breast cancer (4T1); assay: Breast cancer model in mice (4T1, SubQ inoculation); type: in vivo, mouse; details: SubQ delivery
[7] = test system: FLU-A virus serotype H1N1 (WSN); assay: Cytopathetic effect / virus titer in MDCK cells infected with H1N1 (WSN); type: cell-based
Method: FIG. 60(A-B) show the cytopathetic effect (CPE) of Madin-Darby canine kidney (MDCK) cells in vitro. MDCK cells were pretreated with vehicle, α-GalCer or one of the α-GalCer analogs C13, C14 or C16 at 10 μg/ml for four hours, followed by infection with FLU-A virus serotype H1N1 (WSN) at 10TCID50.
BALB/c mice were treated via intranasal route with control, α-GalCer (C1) or the α-GalCer analogs C13, C14 or C16 at one hour prior to virus challenge with H1N1 (WSN). […] In general, certain α-GalCer analogs may exert direct anti-viral effects, or act indirectly via immune stimulation. […] MDCK cells were pretreated with vehicle, α-GalCer or one of the α-GalCer analogs C13, C14 or C16 at 10 μg/ml for four hours, followed by infection with FLU-A virus serotype H1N1 (WSN) at 10TCID50.

[8] = test system: H5 of avian influenza viruses (pHA); type: in vivo, mouse; details: mouse, in vivo
[9] = test system: FLU-A virus serotype H1N1 (WSN); assay: Influenza virus H1N1 (WSN) infection in BALB/c mice; details: mouse, in vivo
[10] = test system: human monocyte-derived DCs; assay: Maturation of human monocyte-derived dendritic cells
[11] = test system: human naïve NKTs (CD161^+CD3^+); assay: Cytokine/chemokine secretion by human naïve CD161+CD3+ NKTs co-cultured with autologous immature CD14+ DCs; type: cell-based
[12] = test system: BALB/c mice; assay: Expansion/activation of mouse splenocyte subpopulations 72 h after injection; type: in vivo
[13] = test system: BALB/c mice; assay: Mouse serum cytokines/chemokines after IV, SubQ or IM injection; type: in vivo
[14] = test system: syngeneic lung cancer (TC1) cells; assay: Lung cancer model in mice (TC1, IV inoculation); type: in vivo, mouse; details: IV administration

CCCCCCCCCCCCCC[C@@H](O)[C@@H](O)[C@H](CO[C@H]1O[C@H](CO)[C@H](O)[C@H](O)[C@H]1O)NC(=O)CCCCCCCCCCc1ccc(-c2ccc(F)cc2)cc1 [C30]
CFU numbers (in lungs) [1]: significant in comparison to the untreated group | total number of NKTs and its two subtypes NKT1 and NKT2 [2]: increase of total number of NKTs | number of tumor infiltrating lymphocytes (CD3+ T, CD8 T, NKs, NKTs) [3]: significantly significant increase in the number of TH1-biased tumor infiltrating lymphocytes in lung cancer, as compared with both control and α-GalCer | number of tumor infiltrating lymphocytes (CD3+ T, CD8 T, NKs, NKTs) [4]: significantly significant increase in the number of TH1-biased tumor infiltrating lymphocytes in melanoma, as compared with both control and α-GalCer

CCCCCCCCCCCCCCCCCCCCCCCCCC(=O)N[C@@H](CO[C@H]1O[C@H](CO)[C@H](O)[C@H](O)[C@H]1O)[C@H](O)[C@H](O)CCc1ccccc1 [C13]
TCR activation ([5]; CD1d-dependent, HeLa-CD1d or DCs): stronger in TCR activation than compounds C1 and C17 | intracellular phospho-CD3ε ([5]; presented by DCs): 17.3 folds | phospho-CREB ([5]; presented by DCs): 158 folds increase | intracellular phospho-CD3ε ([5]; presented by HeLa-CD1d cells): 7.3 folds of control | phospho-CREB ([5]; presented by HeLa-CD1d cells): 41 folds expression | phospho-ERK1/2 ([5]; with DCs): 35 folds | phospho-ERK1/2 ([5]; with HeLa-CD1d cells): 6.6 folds increase | effects on survival compared with C1 [6]: did not differ significantly from that of C1 | suppression of tumor size compared with C1 [6]: significantly greater suppression of tumor size than C1 | tumor growth and survival compared to control [6]: able to suppress tumor growth and prolong survival as compared to control | entry/replication of H1N1 virus (virus titer) [7]: slight inhibition of the entry/replication of H1N1 virus in vitro | adjuvant activities in enhancing the anti-HAc antibody titer [8]: better adjuvant activities than the others in enhancing the antibody titer | effectiveness as adjuvant [8]: particularly effective as adjuvants | cumulative proportion of survival [9]: prolonged survival | survival [9]: significantly enhanced survival | maturation of human monocyte-derived DCs [10]: promotes maturation of human monocyte-derived DCs | secretion of IFN-γ ([11]; 10 μg/ml, 18 hour culture, compared with α-GalCer): significantly greater secretion of IFN-γ than α-GalCer | induction of chemokines ([11]; compared with α-GalCer): striking increase in chemokines such as MIP-11, MCP-1, and IL-8 | IFN/IL-4 ratio (TH1/TH2 bias) ([11]; normalized to DMSO control): more TH1-biased | total and mature DCs ([12]; FIGS. 26B, 28B and 30B, compared with C1): significantly greater rises in total and mature DCs than C1 | CD8^+/CD4^+ ratio ([12]; FIGS. 26H, 28H and 30H): more potent than C1 | splenocyte expansion ([12]; IM administration, 72 hours): greater effects than C1 | expansion of splenocytes ([12]; IV administration, 72 hours): greater potency than C1 | CD4^+ T cells ([12]; SubQ route): more active over control | CD8^+ T cells ([12]; SubQ route): more activity than C1 | B cell expansion/activation ([12]; mouse, in vivo): significant activities | CD8^+ T cell expansion/activation ([12]; mouse, in vivo): more active than C1 | NK and NKT expansion/activation ([12]; mouse, in vivo): comparable activities as C1 | expansion/activation of NKs and NKTs ([12]; mouse, in vivo): best capacity for expansion/activation of NKs and NKTs | IFN-γ/IL-4 ratio (TH1/TH2 bias) ([13]; 2 hours, IV route, compared with C1): less TH2 responses than C1 | serum IL-2, IL-12, MIP-1β and MCP-1 ([13]; IV administration): striking rises in IL-2, IL-12, MIP-1β and MCP-1 | anti-cancer efficacy compared with C1 [14]: significantly greater anti-cancer efficacy than C1
